Reference: patent US20240158430A1, “NOVEL COMPOUND OR SALT THEREOF, AND ANTITUMOR ACTIVATOR CONTAINING SAME AS ACTIVE INGREDIENT” (AKITA UNIVERSITY, priority 2021, published 2024)
Values joined by “and” are separate entries in the source; they are usually repeats but may differ in a detail not shown here. Equal entries are not always repeated. Where two headings read alike, the source gives them in different places.

Legend:
[1] = tested on: gastric cancer cell line KATO III; test: Cell growth inhibitory activity, KATO III; format: cell-based
Experimental: (§1) The cell growth inhibitory activity against a colorectal cancer cell line HCT116 was measured. As an index of cell growth inhibitory activity, a concentration at which cell growth was inhibited by 50% as compared with a control (IC50) was used. The method is as follows. HCT116 was added to a 6-well plate by 5×10^4, compounds having various concentrations were added after 24 hours, and the number of cells was counted after 72 hours of culture. As the control, DMSO was used in an amount equal to the amount added in accordance with the addition concentration of the highest-concentration compound. The number of cells at each concentration relative to the control was expressed as a percentage.
(§2) The method is as described above.
(§3) The cell growth inhibitory activity (IC50) of each of curcumin, GO-Y199, and GO-Y206 against the colorectal cancer cell lines DLD-1 and HCT116 and the gastric cancer cell lines KATO III and H-111-TC was measured. The method is as described above.

Safety and toxicity test = format: in vivo, mouse
Experimental: In vivo safety and toxicity of GO-Y199 were investigated. The method is as follows. As described above, the equivalent of 1 mg of GO-Y199 was injected into the tail vein, blood was collected from the orbital vein 7 days later, and a hemoglobin value (Hb), the number of white blood cells (WBC), and the number of platelets (Plt) were measured with Cell tac MEK-5258 (available from Nihon Kohden Corporation). A creatinine value (Cre), a total bilirubin value (T-Bil), and an AST value were subjected to outsourcing (measured in Skylight Biotech Inc.). FIG. 29 indicates change in body weight of mice after intravenous injection. FIG. 30 indicates photographs of the tail of the mouse after intravenous injection.

[2] = tested on: FOXP3-positive regulatory T cells; test: Regulatory T cell inhibitory activity; format: cell-based, mouse; conditions: 0.3 μM; control 12.8%
Experimental: Naive CD4^+ T cells were collected from the spleen of a mouse using a CD4^+CD62L^hi T Cell Isolation Kit (Miltenyi Biotec). 0.5×10^6 cells/mL of the collected T cells were added to a RPMI 1640 medium to which penicillin/streptomycin (5,000 units/mL), 10% fetal bovine serum, and 50 μM of 2-mercaptoethanol were added. Subsequently, 1 μg/mL of anti-CD3 antibody (eBioscience) was added to the medium, and 1 μg/ml of anti-CD28 antibody (eBioscience) was further added thereto. The medium was then cultured at 37° C. for 3 days. Then, TGF-β1 (2 ng/mL) was added to the medium and cultured for 24 hours. After that, a FOXP3 Staining Buffer Kit (eBioscience) was used to fix the cells and treat cell membranes, and FOXP3 in the nuclei was stained. The stained cells were measured using a BD LSRFortessa™ (BD Bioscience) flow cytometer, and the obtained data was analyzed with FlowJo (Tree-Star version).

Kato III = test: Cytocidal effect, Kato III; format: cell-based; conditions: 2 μM and 5 μM, cells counted after 48 and 72 hours
Experimental: The method is as follows. Each cell line was added to 6-well plate by 5×10^4, 2 μM and 5 μM of GO-Y199 were added after 24 hours, and the number of cells was counted after 48 hours and 72 hours.

[3] = tested on: breast cancer cell line HCC38; test: Cell growth inhibitory activity, HCC38; format: cell-based
Experimental: [The source words this procedure for another cell line and reports this cell line under the same test.] as §1, §2

fatty acid synthetase = test: Influence on fatty acid synthetase, ELISA; format: cell-based, Human; conditions: 4 μM vs control group
Experimental: The influence of GO-Y199 on NF-kB (p65) was investigated. The method is as follows. 3×10^6 cells of the HCT116 cell line were added to a 10-cm plate, 2 μM of GO-Y199 was added after 24 hours, the cells were collected after 24 hours, embedded in iPGell (GenOStaff), and fixed in formalin, paraffin blocks were then prepared, and immuno-histochemistry was performed with an anti-NF-kB (p65) antibody. In addition, 2 μM and 5 μM of GO-Y199 were added, lysates were collected after 24 hours, and an expression level of NF-kB (p65) was analyzed using an ELISA-plate (NF-kBp65 (pS536) SimpleStep-ELISA-kit, Abcam). An amount of protein was corrected by the absorbance of A 280 nm. The upper part of FIG. 14 indicates photographs of the control group and the GO-Y199 (2 μM)-added group after 24 hours. The lower part of FIG. 14 indicates results of the t-test of these groups after 24 hours. FIG. 15 indicates the comparison results of the NF-kB inhibitory effect of GO-Y199 (2 μM, 5 μM)-added groups with respect to the control group.
The influence of GO-Y199 on fatty acid synthetase was investigated. The method is as described above. Protein quantification was performed using a Human Fatty acid synthase ELISA Kit (MyBioSource). FIG. 19 indicates the comparison result of the fatty acid synthetase inhibitory effect of the GO-Y199 (4 μM)-added group with respect to the control group.

[4] = tested on: colorectal cancer cell line HCT116; test: Cell growth inhibitory activity, HCT116; format: cell-based
Experimental: as §1, §2, §3

[5] = tested on: gastric cancer cell line H-111-TC; test: Cell growth inhibitory activity, H-111-TC; format: cell-based; conditions: Table 6
Experimental: as §1, with “percentage. In Table 3, the turbidities of the compounds are also indicated.” for “percentage.”
as §3, with “above. FIG. 8 indicates the results of cell growth inhibitory activity of these compounds against various cancer cell lines.” for “above.”

[6] = individual mice, 7 days after 1 mg iv

SMILES: COCOc1cc(/C=C/C(=O)CC(SCCOCCOCCOCCOCc2cn([C@@H]3O[C@H](CO)[C@@H](O[C@@H]4O[C@H](CO)[C@H](O)[C@H](O)[C@H]4O)[C@H](O)[C@H]3O)nn2)c2cc(OCOC)cc(OCOC)c2)cc(OCOC)c1 (some centres unmarked) [GO-Y199]
- IC50 ([1]; Table 4, 72 hours, read-out: IC50 KATO III): 0.8 µM
- IC50 ([1]; Table 6, read-out: IC50 (μM) KATO III): 3.86 µM
- Cre (mg/dL) Ave. ± SD (Safety and toxicity test; 7 days after 1 mg iv, control 0.24 ± 0.15): 0.15 ± 0.02 mg/dL
- T-Bil (mg/dL) Ave. ± SD (Safety and toxicity test; 7 days after 1 mg iv, control 0.47 ± 0.17): 0.33 ± 0.19 mg/dL
- AST (U/L) Ave. ± SD (Safety and toxicity test; 7 days after 1 mg iv, control 65.0 ± 9.1): 62.0 ± 8.6 U/L
- hematology and blood chemistry vs control group (Safety and toxicity test; Tables 12 and 13): no significant difference
- body weight vs control group (Safety and toxicity test; after intravenous injection): no difference in body weight
- local finding in the tails (Safety and toxicity test; after tail vein injection): no local abnormal finding
- AST (U/L) (Safety and toxicity test; [6]): 63 U/L and 72 U/L and 51 U/L
- Cre (Safety and toxicity test; [6]): 0.18 mg/dL and 0.14 mg/dL and 0.13 mg/dL
- T-Bil (Safety and toxicity test; [6]): 0.2 mg/dL (2×) and 0.6 mg/dL
- overall safety (Safety and toxicity test; mouse model): safe
- induction ratio of FOXP3-positive regulatory T cells [2]: 2.22%
- cytocidal effect (Kato III): cytocidal effect
- IC50 ([3]; Table 4, 72 hours): 1050 nM
- GO-Y199 vs GO-Y030 (IC50 comparison), HCC38 ([3]; Table 5, ratio of IC50): 0.58
- fatty acid synthetase inhibitory effect (fatty acid synthetase): significant fatty acid synthetase inhibitory effect
- IC50 ([4]; Table 3, HCT116, cell count after 72 hours of culture vs DMSO control, read-out: IC50): 0.43 µM
- GO-Y199 vs GO-Y030 (IC50 comparison), HCT-116 ([4]; Table 5, ratio of IC50): 0.65
- GO-Y199 vs curcumin (IC50 comparison), HCT-116 ([4]; Table 5, ratio of IC50): 0.029
- IC50 ([4]; Table 6, read-out: IC50 (μM) HCT116): 0.98 µM
- IC50 ([4]; read-out: IC50 HCT-116, Table 4, 72 hours): 0.46 µM
- IC50 [5]: 2.9 µM
